Series [1] deals with T1, EphA4 LBD (Homo sapiens, UniProt P54764). Briefly: Fluorescence polarization assay (FPA), displacement of FITC-labeled KYL peptide. The class given is binding. The following applies: PBS pH 7.2. As for the experimental part: Fluorescence Polarization Assay (FPA):
The EphA4 binding KYL peptide ([…], Murai et al. Mol. Cell. Neurosci. 2003, 24:1000-1011) was labeled at the N-terminus with fluorescein isothiocyanate (FITC) and purified by HPLC. For competitive binding assays, 1 μL of 200 μM EphA4 LBD was pre-incubated with the tested compounds at various concentrations in 98 μL PBS (pH=7.2) in 96-well black plates at room temperature for 10 min, and then 1 μL of 500 μM FITC labeled EphA4 peptide was added to produce a final volume of 100 μL. The KYL and DMSO were incubated in each assay as positive and negative controls, respectively. After 30 min of incubation at room temperature, the polarization values in millipolarization units were measured at excitation/emission wavelengths of 480/535 nm with a multilabel plate reader (PerkinElmer, Waltham, Mass., USA). Ki value was determined by fitting the experimental data to a Sigmoidal dose-response (variable slope) nonlinear regression model (GraphPad Prism version 5.01 for Windows, GraphPad Software, San Diego, Calif., USA).
(§1) (B) EphA4-LBD was dissolved in 50 mM potassium phosphate buffer (pH 6.5), containing 100 mM NaCl. ITC were measured.
Target sequence in this assay (P54764 30-209 limits assumed): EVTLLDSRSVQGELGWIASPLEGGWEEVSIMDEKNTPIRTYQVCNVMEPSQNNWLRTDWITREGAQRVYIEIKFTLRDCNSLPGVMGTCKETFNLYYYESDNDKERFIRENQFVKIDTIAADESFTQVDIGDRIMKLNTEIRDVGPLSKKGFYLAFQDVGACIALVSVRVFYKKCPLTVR
Background: Fluorescence polarisation rises when a labelled molecule tumbles more slowly, as on binding a larger partner.

In series [2] the target is T1, EphA4 LBD. Briefly: Isothermal titration calorimetry (ITC). It counts as binding. The following applies: 25° C., PBS with 10% DMSO. As for the experimental part: Isothermal Titration Calorimetry (ITC):
(§2) isothermal titration calorimetry (ITC) to measure binding constant was performed on a Model ITC200 calorimeter from Microcal/GE Life Sciences. When indicated, measurements were performed in a reverse way—i.e., the protein was titrated into the compound solution. A total of 8 μl EphA4 solution (1.65 mM) was injected into the cell containing 165 µM of compound per injection. All titrations were performed at 25° C. in PBS buffer supplemented with 10% DMSO. Experimental data were analyzed using Microcal Origin software provided by the ITC manufacturer (Microcal).
as §1
In general terms: In ITC the heat of successive injections is recorded.

The target of a further series is 15N-labeled EphA4-LBD (Homo sapiens, UniProt P54764). In words: 2D-[15N,1H]-HSQC NMR detection of binding. To be noted: 300 K. The text has this:
NMR spectra of ^15N-labeled EphA4-LBD were acquired on 700 MHz Bruker Avance spectrometer equipped with TCI cryoprobe. All NMR data were processed and analyzed using TOPSPIN2.1 (Bruker Biospin Corp., Billerica, Mass., USA) and SPARKY3.1 (University of California, San Francisco, Calif., USA).

For series [3], the system named is SOD1(G93A)-mutant mice. In words: In vivo efficacy in an animal model of ALS. Here is the method: Equal number of SOD1(G93A)-mutant mice of the same gender from same litter were randomly divided into two groups (n=12).
FIG. 3. […] The data were analyzed using the Kaplan-Meier method. Animal studies. Equal number of SOD1(G93A)-mutant mice of the same gender from same litter were randomly divided into two groups. […] Animals were assessed daily for the time of onset of hind limb tremor and loss of splay reflex. The endpoint was designated as the point when the mouse could no longer roll over within 10 s after being pushed onto its side. At this stage, mice were killed. Disease onset and survival time were compared using the Kaplan-Meier method. […] Values are given as mean±SD. Preliminary BBB penetration and PK studies were performed by Agilux (Cambridge, Mass.) and in house.

The subject of series [4] is SOD1(G93A)-mutant mice. In words: Pilot study for toxicity and dose in SOD1(G93A)-mutant mice. The class given is in vivo. To be noted: 2 mice.
For a further series, the target named is EphA2 receptor (Homo sapiens, UniProt P29317). In words: ITC with EphA2 receptor. It counts as binding. The following applies: same experimental conditions as EphA4 ITC. As for the experimental part: as §2
Chain of EphA2 receptor (P29317 24-976): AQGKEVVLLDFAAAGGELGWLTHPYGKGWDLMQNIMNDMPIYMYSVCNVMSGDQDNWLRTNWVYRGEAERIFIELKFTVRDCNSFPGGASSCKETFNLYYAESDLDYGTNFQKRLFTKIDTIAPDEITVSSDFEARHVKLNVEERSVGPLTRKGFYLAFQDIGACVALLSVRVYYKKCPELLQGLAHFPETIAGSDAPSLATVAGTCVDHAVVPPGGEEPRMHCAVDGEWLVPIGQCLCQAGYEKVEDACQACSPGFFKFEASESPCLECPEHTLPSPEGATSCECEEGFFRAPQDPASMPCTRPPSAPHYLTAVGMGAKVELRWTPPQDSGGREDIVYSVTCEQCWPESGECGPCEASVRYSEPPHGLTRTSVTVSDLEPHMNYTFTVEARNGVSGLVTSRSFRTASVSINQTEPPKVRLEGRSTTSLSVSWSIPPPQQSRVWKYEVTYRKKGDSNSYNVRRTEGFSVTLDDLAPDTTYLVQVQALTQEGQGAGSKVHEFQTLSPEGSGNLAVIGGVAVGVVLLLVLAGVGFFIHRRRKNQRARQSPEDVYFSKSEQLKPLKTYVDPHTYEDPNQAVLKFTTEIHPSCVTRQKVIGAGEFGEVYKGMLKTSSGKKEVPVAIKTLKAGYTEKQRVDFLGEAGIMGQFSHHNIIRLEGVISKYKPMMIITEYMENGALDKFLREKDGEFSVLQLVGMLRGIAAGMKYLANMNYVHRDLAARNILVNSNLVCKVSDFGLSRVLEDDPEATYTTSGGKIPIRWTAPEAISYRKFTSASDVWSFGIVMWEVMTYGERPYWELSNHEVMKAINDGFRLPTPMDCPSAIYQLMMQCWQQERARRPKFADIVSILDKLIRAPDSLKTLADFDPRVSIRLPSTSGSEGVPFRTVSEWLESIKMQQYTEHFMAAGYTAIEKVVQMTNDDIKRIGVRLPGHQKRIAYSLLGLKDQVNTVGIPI
Series [5] concerns the target EphA4 ligand binding domain (UniProt P54764). Briefly: ITC; grade legend: A < 1 µM.
For series [6] the target is unchanged. In words: ITC.
A further series addresses EphA4-LBD mutant 159A (UniProt P54764). In words: ITC.
Another series has as its target EphA4-LBD mutant 159G (UniProt P54764). Briefly: ITC.
Series [7] deals with EphA4 ligand binding domain (UniProt P54764). In words: FPA, displacement of FITC-KYL peptide from EphA4 LBD; repeated experiments.
Chain of EphA4 ligand binding domain (P54764 29-209 limits assumed): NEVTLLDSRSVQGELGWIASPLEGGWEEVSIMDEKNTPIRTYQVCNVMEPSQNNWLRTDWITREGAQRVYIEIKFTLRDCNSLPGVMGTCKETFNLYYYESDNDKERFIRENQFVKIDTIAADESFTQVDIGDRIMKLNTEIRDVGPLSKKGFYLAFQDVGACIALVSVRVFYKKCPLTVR
For series [8] the target is unchanged. Briefly: FPA, displacement of FITC-KYL peptide from EphA4 LBD; grade legend: 5 µM ≤ C.
Another series concerns the target EphA4 (Homo sapiens, UniProt P54764). To be noted: previously reported; cited from earlier work.

Where a SMILES comes first, the peptide text is derived from it. [ ]: non-standard residue; d: D form. Trp(5-OH) = N[C@@H](Cc1c[nH]c2ccc(O)cc12)C(=O)O; Phe(4-Cl) = N[C@@H](Cc1ccc(Cl)cc1)C(=O)O; 4Pal = N[C@@H](Cc1ccncc1)C(=O)O; Ava = NCCCCC(=O)O

Chain of EphA4-LBD mutant 159A (P54764 other isoform, or with tags, fused parts or gaps mutant limits assumed): as the sequence (P54764 29-209 limits assumed) above, with I31A counted along it
Chain of 15N-labeled EphA4-LBD (P54764 30-209 limits assumed): as the sequence (P54764 30-209 limits assumed) above
Chain of EphA4 (P54764 20-986, species assumed): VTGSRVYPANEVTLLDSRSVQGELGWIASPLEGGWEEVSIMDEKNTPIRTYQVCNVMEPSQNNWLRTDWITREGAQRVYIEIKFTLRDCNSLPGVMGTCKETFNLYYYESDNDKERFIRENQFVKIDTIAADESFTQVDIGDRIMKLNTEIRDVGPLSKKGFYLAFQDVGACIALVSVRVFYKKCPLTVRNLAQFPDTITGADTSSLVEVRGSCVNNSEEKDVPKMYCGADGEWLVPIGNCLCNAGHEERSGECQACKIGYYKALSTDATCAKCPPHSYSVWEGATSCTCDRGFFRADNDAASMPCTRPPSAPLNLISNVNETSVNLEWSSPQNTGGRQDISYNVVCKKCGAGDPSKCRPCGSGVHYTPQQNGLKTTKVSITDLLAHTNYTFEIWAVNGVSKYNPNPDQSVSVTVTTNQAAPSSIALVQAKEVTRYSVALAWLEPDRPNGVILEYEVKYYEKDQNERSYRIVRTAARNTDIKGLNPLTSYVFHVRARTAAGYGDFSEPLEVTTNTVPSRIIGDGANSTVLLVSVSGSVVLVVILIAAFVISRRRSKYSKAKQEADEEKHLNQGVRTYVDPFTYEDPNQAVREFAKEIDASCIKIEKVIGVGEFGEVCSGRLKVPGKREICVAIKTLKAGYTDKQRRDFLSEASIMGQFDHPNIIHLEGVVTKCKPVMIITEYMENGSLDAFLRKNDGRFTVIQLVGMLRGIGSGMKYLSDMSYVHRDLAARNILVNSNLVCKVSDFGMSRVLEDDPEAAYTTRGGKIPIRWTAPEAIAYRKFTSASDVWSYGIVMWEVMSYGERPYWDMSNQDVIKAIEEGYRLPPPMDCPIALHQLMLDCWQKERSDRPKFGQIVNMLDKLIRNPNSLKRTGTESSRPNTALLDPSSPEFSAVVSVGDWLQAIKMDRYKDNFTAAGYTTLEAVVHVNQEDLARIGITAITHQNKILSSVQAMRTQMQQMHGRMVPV
Chain of EphA4-LBD mutant 159G (P54764 other isoform, or with tags, fused parts or gaps mutant limits assumed): as the sequence (P54764 29-209 limits assumed) above, with I31G counted along it

For the compound `NCCCCC(=O)N[C@@H](Cc1c[nH]c2ccc(O)cc12)C(=O)N[C@@H](Cc1ccc(Cl)cc1)C(=O)N[C@@H](Cc1ccncc1)C(=O)N[C@H](Cc1c[nH]c2ccccc12)C(N)=O` [Compound 4, 5-amino-N-((S)-1-((S)-1-((S)-1-((R)-1-amino-3-(1H-indol-3-yl)-1-oxopropan-2-ylamino)-1-oxo-3-(pyridin-4-yl)propan-2-ylamino)-3-(4-chlorophenyl)-1-oxopropan-2-ylamino)-3-(5-hydroxy-1H-indol-3-yl)-1-oxopropan-2-yl)pentanamide] (H-[Ava][Trp(5-OH)][Phe(4-Cl)][4Pal][dW]-NH2), the Ki – broadly, the dissociation constant of the complex between target and ligand, obtained from inhibition or displacement – at EphA4 LBD [1] is 1000 to 5000 nM.
For `NCCCC(=O)N[C@@H](Cc1c[nH]c2ccc(O)cc12)C(=O)N[C@@H](Cc1ccc(Cl)cc1)C(=O)N[C@@H](Cc1ccncc1)C(=O)NCCc1c[nH]c2ccccc12` [Compound 5, N-((S)-1-((S)-1-((S)-1-(2-(1H-indol-3-yl)ethylamino)-1-oxo-3-(pyridin-4-yl)propan-2-ylamino)-3-(4-chlorophenyl)-1-oxopropan-2-ylamino)-3-(5-hydroxy-1H-indol-3-yl)-1-oxopropan-2-yl)-4-aminobutanamide], the Ki at EphA4 LBD [1] was in the range of 1000 to 5000 nM. At EphA4 LBD [2], the Kd – broadly, a measure of binding affinity in units of concentration – fell in the range of 1000 to 5000 nM.
With `NCCCC(=O)N[C@@H](Cc1c[nH]c2ccc(O)cc12)C(=O)N[C@@H](Cc1ccc(Cl)cc1)C(=O)N[C@@H](Cc1ccncc1)C(=O)NCCc1c[nH]c2ccc(F)cc12` [Compound 6, 4-amino-N-((S)-1-((S)-3-(4-chlorophenyl)-1-((S)-1-(2-(5-fluoro-1H-indol-3-yl)ethylamino)-1-oxo-3-(pyridin-4-yl)propan-2-ylamino)-1-oxopropan-2-ylamino)-3-(5-hydroxy-1H-indol-3-yl)-1-oxopropan-2-yl)butanamide], the Ki at EphA4 LBD [1] fell in the range of 1000 to 5000 nM.
Consider `COc1ccc2[nH]cc(CCNC(=O)[C@H](Cc3ccncc3)NC(=O)[C@H](Cc3ccc(Cl)cc3)NC(=O)[C@H](Cc3c[nH]c4ccc(O)cc34)NC(=O)CCCN)c2c1` [Compound 7, 4-amino-N-((S)-1-((S)-3-(4-chlorophenyl)-1-((S)-1-(2-(5-methoxy-1H-indol-3-yl)ethylamino)-1-oxo-3-(pyridin-4-yl)propan-2-ylamino)-1-oxopropan-2-ylamino)-3-(5-hydroxy-1H-indol-3-yl)-1-oxopropan-2-yl)butanamide], for which the “Binding exchange regime by NMR” value at 15N-labeled EphA4-LBD is recorded as “slow exchange in the NMR time scale”. The “Effect on disease onset” value with SOD1(G93A)-mutant mice [3] (30 mg/Kg i.p. daily in saline) is given as “without affecting the disease onset”. The “Kaplan-Meier survival compared to control mice” value with SOD1(G93A)-mutant mice [3] (30 mg/kg daily i.p.) is “increased survival”. Also, in the series on SOD1(G93A)-mutant mice [3] (30 mg/kg daily i.p. from postnatal day 60, mean±SD, control 28.2±4.2 days, p<0.01), the “Average survival time from disease onset to end point” value is 38.6 ± 5.7 days. The compound also displayed an Average life span in the series with SOD1(G93A)-mutant mice [3] (30 mg/kg daily i.p. from postnatal day 60, n=12, mean±SD, control 134.3±7.2 days, p<0.01) of 142.8 ± 6.9 days. The “Signs of toxicity compared to control mice” value in the series with SOD1(G93A)-mutant mice [4] (30 mg/Kg daily i.p. for several weeks) was “no adverse sign of toxicity were observed”. In the series with SOD1(G93A)-mutant mice [4] (30 mg/Kg daily i.p.), the “Survival in pilot study” value is listed as “increased survival”. On EphA2 receptor, the “Binding to the EphA2 receptor by ITC” value is given as “not observed”.
At EphA4 LBD [1], `NCCCC(=O)N[C@@H](Cc1c[nH]c2ccc(O)cc12)C(=O)N[C@@H](Cc1ccc(Cl)cc1)C(=O)N[C@@H](Cc1ccncc1)C(=O)NCCc1c[nH]c2ccc(O)cc12` [Compound 8, 4-amino-N-((S)-1-((S)-3-(4-chlorophenyl)-1-((S)-1-(2-(5-hydroxy-1H-indol-3-yl)ethylamino)-1-oxo-3-(pyridin-4-yl)propan-2-ylamino)-1-oxopropan-2-ylamino)-3-(5-hydroxy-1H-indol-3-yl)-1-oxopropan-2-yl)butanamide] returned a Ki of 1000 to 5000 nM. This compound also came in with a Kd at EphA4 LBD [2] of 1000 to 5000 nM.
Take `NCCCC(=O)N[C@@H](Cc1c[nH]c2ccc(O)cc12)C(=O)N[C@@H](Cc1ccc(Cl)cc1)C(=O)N[C@@H](Cc1ccncc1)C(=O)NCCc1c[nH]c2ccc(Cl)cc12` [Compound 9, 4-amino-N-((S)-1-((S)-1-((S)-1-(2-(5-chloro-1H-indol-3-yl)ethylamino)-1-oxo-3-(pyridin-4-yl)propan-2-ylamino)-3-(4-chlorophenyl)-1-oxopropan-2-ylamino)-3-(5-hydroxy-1H-indol-3-yl)-1-oxopropan-2-yl)butanamide]: the Ki at EphA4 LBD [1] was in the range of 1000 to 5000 nM.
`COc1ccc2c(CCNC(=O)[C@H](Cc3ccncc3)NC(=O)[C@H](Cc3ccc(Cl)cc3)NC(=O)[C@H](Cc3c[nH]c4ccc(O)cc34)NC(=O)CCCN)c[nH]c2c1` [Compound 10, 4-amino-N-((S)-1-((S)-3-(4-chlorophenyl)-1-((S)-1-(2-(6-methoxy-1H-indol-3-yl)ethylamino)-1-oxo-3-(pyridin-4-yl)propan-2-ylamino)-1-oxopropan-2-ylamino)-3-(5-hydroxy-1H-indol-3-yl)-1-oxopropan-2-yl)butanamide]: the Ki on EphA4 LBD [1] was in the range of 1000 to 5000 nM. At EphA4 LBD [2], the Kd is less than 1000 nM.
At EphA4 LBD [1], `NCCCC(=O)N[C@@H](Cc1c[nH]c2ccc(O)cc12)C(=O)N[C@@H](Cc1ccc(Cl)cc1)C(=O)N[C@@H](Cc1ccncc1)C(=O)NCCc1cccc2ccccc12` [Compound 11, 4-amino-N-((S)-1-((S)-3-(4-chlorophenyl)-1-((S)-1-(2-(naphthalen-1-yl)ethylamino)-1-oxo-3-(pyridin-4-yl)propan-2-ylamino)-1-oxopropan-2-ylamino)-3-(5-hydroxy-1H-indol-3-yl)-1-oxopropan-2-yl)butanamide] showed an inhibition constant Ki of no less than 5000 nM.
For the compound “Compound 7: 4-amino-N-((S)-1-((S)-3-(4-chlorophenyl)-1-((S)-1-(2-(5-methoxy-1H-indol-3-yl)ethylamino)-1-oxo-3-(pyridin-4-yl)propan-2-ylamino)-1-oxopropan-2-ylamino)-3-(5-hydroxy-1H-indol-3-yl)-1-oxopropan-2-yl)butanamide (peptide)”, the dissociation constant (Kd) is less than 1000 nM in [5], 450 nM in series [6], 9090 nM with EphA4-LBD mutant 159A and 3660 nM with EphA4-LBD mutant 159G. Also, the inhibition constant (Ki) in series [7] lay within 500 to 660 nM.
Take “Compound 11: 4-amino-N-((S)-1-((S)-3-(4-chlorophenyl)-1-((S)-1-(2-(naphthalen-1-yl)ethylamino)-1-oxo-3-(pyridin-4-yl)propan-2-ylamino)-1-oxopropan-2-ylamino)-3-(5-hydroxy-1H-indol-3-yl)-1-oxopropan-2-yl)butanamide (peptide)”: the Ki in series [8] was greater than 5000 nM.
Take KYLPYWPVLSSL: the “Kd for EphA4 (reported peptides)” value at EphA4 is “low micromolar range”.

The values above are taken from patent US20180127464A1, “NOVEL EPHA4 INHIBITORS TARGETING ITS LIGAND BINDING DOMAIN” (Sanford-Burnham Medical Research Institute, priority 2015, published 2018).
